# Values of other authors in patent US5543414A, “Achiral amino acid acyl esters of ganciclovir and its derivatives” (priority 1994, dated 1996).
# Counter-ions that a name gives are not always drawn. Like-named read-outs stand apart in the source and are kept apart here.
# Legend:
# [1] = in vivo
# [2] = not given; remark: listed apart in the source
# [3] = not given; remark: listed apart in the source
# [4] = tested on: epithelial and stromal herpes simplex keratitis and associated iritis; conditions: glycine ester: 1% eye drop formulation, rabbits; acyclovir: ointment
# [5] = tested on: viruses of the herpes family; conditions: e.g. herpes simplex, cytomegalovirus
# [6] = oral administration
# [7] = not given; remark: listed apart in the source
# [8] = tested on: herpes simplex virus type 1 and type 2 strains; conditions: primary rabbit kidney cell cultures
# [9] = not given; remark: listed apart in the source
compound,measurement,setting,value
CC[C@H](N)C(=O)OCCOCn1cnc2c(=O)[nH]c(N)nc21,amounts of the parent drug in the urine compared with acyclovir,"rat, in vivo",greater amounts of the parent drug in the urine than acyclovir itself
"CC(N)C(=O)OCCOCn1cnc2c(=O)[nH]c(N)nc21 (racemic) [D,L-alanyl]",amounts of the parent drug in the urine compared with acyclovir,"rat, in vivo",greater amounts of the parent drug in the urine than acyclovir itself
"CC(C)C(N)C(=O)OCCOCn1cnc2c(=O)nc(N)[nH]c21 (racemic) [D,L-valyl]",amounts of the parent drug in the urine compared with acyclovir,"rat, in vivo",greater amounts of the parent drug in the urine than acyclovir itself
CCC(C)C(N)C(=O)OCCOCn1cnc2c(=O)[nH]c(N)nc21 (racemic) [DL-isoleucyl],amounts of the parent drug in the urine compared with acyclovir,rats,greater amounts of the parent drug in the urine than acyclovir itself
Nc1ncc2ncn(COCCO)c2n1 [6-deoxy-acyclovir],conversion to parent drug,[1],readily converted in vivo by the action of enzymes
same,absorption and plasma levels of the parent drugs,"[2]; oral administration, rats",efficient absorption from the gastro-intestinal tract and high plasma levels of the parent drugs
Nc1ncc2ncn(COC(CO)CO)c2n1 [6-deoxy-ganciclovir],conversion to parent drug,[1],readily converted in vivo by the action of enzymes
same,absorption and plasma levels of the parent drugs,"[2]; rat, in vivo, po",efficient absorption from the gastro-intestinal tract and high plasma levels of the parent drugs
C[C@H](N)C(=O)OCCOCn1cnc2c(=O)[nH]c(N)nc21 [L-alanyl],amounts of the parent drug in the urine compared with acyclovir,"rat, in vivo",greater amounts of the parent drug in the urine than acyclovir itself
CC[C@H](C)[C@H](N)C(=O)OCCOCn1cnc2c(=O)[nH]c(N)nc21 [L-isoleucyl],amounts of the parent drug in the urine compared with acyclovir,"rat, in vivo",greater amounts of the parent drug in the urine than acyclovir itself
CSCC[C@H](N)C(=O)OCCOCn1cnc2c(=O)[nH]c(N)nc21 [L-methionyl],amounts of the parent drug in the urine compared with acyclovir,"rat, in vivo",greater amounts of the parent drug in the urine than acyclovir itself
Nc1nc2c(ncn2COCCOC(=O)[C@@H]2CCCN2)c(=O)[nH]1 [L-prolyl ester],amounts of the parent drug in the urine compared with acyclovir,"rat, in vivo",greater amounts of the parent drug in the urine than acyclovir itself
CC(C)[C@H](N)C(=O)OCCOCn1cnc2c(=O)[nH]c(N)nc21 [L-valyl ester of acyclovir],amounts of the parent drug in the urine compared with acyclovir,rats,greater amounts of the parent drug in the urine than acyclovir itself
same,ranking as prodrug of acyclovir,rats,the best prodrug of the esters investigated
"Nc1nc2c(ncn2COCCO)c(=O)[nH]1 [acyclovir, 2-(2-amino-1,6-dihydro-6-oxo-1,6-dihydro-purin-9-yl)methoxy-ethanol]",water solubility,[3],limited solubility in water
same,efficacy in topical treatment of herpes simplex keratitis and iritis,[4],hardly effective in stromal disease or iritis
same,antiviral activity,[5],good activity against herpes viruses such as herpes simplex
same,urinary recovery of acyclovir,"rat, in vivo, po",19%
CCC(=O)OCC(COC(=O)CC)OCn1cnc2c(=O)[nH]c(N)nc21 [dipropionate ester],more bioavailable than ganciclovir itself,[6],about 42%
"Nc1nc2c(ncn2COC(CO)CO)c(=O)[nH]1 [ganciclovir, 9-[(2-hydroxy-1-hydroxymethyl-ethoxy)methyl]-guanine]",antiviral activity,[5],"highly efficacious against viruses of the herpes family, for example, against herpes simplex and cytomegalovirus"
NCC(=O)OCCOCn1cnc2c(=O)[nH]c(N)nc21 [glycyl ester of acyclovir],efficacy in topical treatment of herpes simplex keratitis and iritis,[4],efficacious in the topical treatment of epithelial and stromal herpes simplex keratitis and associated iritis
same,amounts of the parent drug in the urine compared with acyclovir,rats,greater amounts of the parent drug in the urine than acyclovir itself
same,solubility greater than the solubility of acyclovir itself,[7],about 30 fold
CC(N)C(=O)OCCOCn1cnc2c(=O)[nH]c(N)nc21 (centres unmarked) [hydrochloride salt of the alanyl ester],activity against herpes simplex virus type 1 and type 2 compared with acyclovir,[8],almost as active as acyclovir itself
NCC(=O)OCCOCn1cnc2c(=O)[nH]c(N)nc21 [hydrochloride salt of the glycyl ester],activity against herpes simplex virus type 1 and type 2 compared with acyclovir,[8],almost as active as acyclovir itself
NCCC(=O)OCCOCn1cnc2c(=O)[nH]c(N)nc21 [hydrochloride salt of the β-alanyl ester],activity against herpes simplex virus type 1 and type 2 compared with acyclovir,[8],almost as active as acyclovir itself
CCC(C)C(N)C(=O)OCCOCn1cnc2c(=O)[nH]c(N)nc21 (centres unmarked) [isoleucine ester of acyclovir],absorption from the gut compared with other esters and acyclovir,"[9]; oral administration, preferably in the L-form",large increase in absorption from the gut after oral administration
Nc1nc2c(ncn2COCCOC(=O)CCC(=O)O)c(=O)[nH]1 [sodium salt of the succinyl ester],activity against herpes simplex virus type 1 and type 2 compared with acyclovir,[8],almost as active as acyclovir itself
CC(C)[C@H](N)C(=O)OCCOCn1cnc2c(=O)nc(N)[nH]c21 [valine ester of acyclovir],absorption from the gut compared with other esters and acyclovir,"[9]; in vivo, po",large increase in absorption from the gut after oral administration
